This assay deals with Mitogen-activated protein kinase kinase kinase kinase 1 (Homo sapiens, UniProt Q92918). The assay can be described thus: Lantha Binding Assay. The method, then: For the binding assay, 4 μL 2×HPK1 and Eu-anti-GST antibody were added to each well of the assay plate using a Multidrop reagent dispenser. The solutions were incubated in a 23 C incubator for 1 h. […] The solutions were again incubated in a 23° C. incubator for 1 h.

What is called Ki is a measure of affinity in units of concentration, obtained from inhibition or displacement.

Sequence of Mitogen-activated protein kinase kinase kinase kinase 1 (Q92918 whole entry): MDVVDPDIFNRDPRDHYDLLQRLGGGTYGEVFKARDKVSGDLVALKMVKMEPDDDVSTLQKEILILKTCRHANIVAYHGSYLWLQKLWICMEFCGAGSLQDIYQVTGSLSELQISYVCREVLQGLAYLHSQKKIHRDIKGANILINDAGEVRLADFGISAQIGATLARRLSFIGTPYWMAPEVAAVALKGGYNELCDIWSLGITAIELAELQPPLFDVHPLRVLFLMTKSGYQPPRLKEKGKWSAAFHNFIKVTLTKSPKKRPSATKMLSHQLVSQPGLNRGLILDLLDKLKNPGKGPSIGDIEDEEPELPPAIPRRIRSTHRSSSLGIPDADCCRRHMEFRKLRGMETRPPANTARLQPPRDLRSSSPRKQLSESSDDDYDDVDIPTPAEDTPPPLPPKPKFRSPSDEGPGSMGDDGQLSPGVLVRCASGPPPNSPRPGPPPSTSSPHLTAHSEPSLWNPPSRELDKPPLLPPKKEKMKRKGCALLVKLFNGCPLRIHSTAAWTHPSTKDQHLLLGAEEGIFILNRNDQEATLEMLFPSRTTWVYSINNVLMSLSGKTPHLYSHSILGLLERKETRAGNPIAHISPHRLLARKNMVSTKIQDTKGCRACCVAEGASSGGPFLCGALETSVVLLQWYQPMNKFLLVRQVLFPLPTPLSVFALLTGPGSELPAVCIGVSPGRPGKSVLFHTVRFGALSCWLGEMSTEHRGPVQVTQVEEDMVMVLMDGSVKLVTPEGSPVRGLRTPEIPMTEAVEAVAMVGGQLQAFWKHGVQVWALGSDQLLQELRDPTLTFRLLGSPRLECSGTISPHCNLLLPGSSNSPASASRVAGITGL

As to `CCn1cc(-c2cc(N)c3nnc(NC(=O)[C@@H]4C[C@@H]4F)cc3c2)cn1` [US20240368170, Compound 1a], the inhibitory constant (Ki) amounted to 0.084 µM. Turning to `CC(C)NC(=O)Nc1cc2cc(-c3cnn(C)c3)cc(N)c2nn1` [US20240368170, Compound 8], the affinity, expressed as Ki, was 0.021 µM.
